Data from US6566081B1, “Methods of identifying a compound which modulates the non-transcriptional non-map-kinase induced effects of steroid hormones” (The Brigham and Women's Hospital, Inc., priority 1999, dated 2003).
Entries after “also recorded” stand apart in the source; their conditions may differ. Numbered stars: 1 amine (or outer) side, 2 acyl side, 3 side chain; on linkers, the order of the positions; unused ones are H or OH. Bridge positions count the residues as written; N and C are the ends. Square brackets hold non-standard residues; d marks the D form. Peptide text beside a SMILES is read from it. I, II: the chains in the order shown. Actinocin(9to1) = Cc1c2oc3c(C)ccc(C(=O)[*:1])c3nc-2c(C(=O)[*:2])c(N)c1=O; NMeV = CN[C@H](C(=O)O)C(C)C; Sar = CNCC(=O)O

Columns and labels:
eNOS = eNOS activity assay (conversion of [3H]-arginine to [3H]-citrulline) in treated human endothelial cells; format: cell-based; conditions: for effect on E2-stimulated eNOS activity, later phase (≥15 min) or 30 min / effect on E2-stimulated eNOS activity, initial phase (first 5-10 min): E2 10 nM, wortmannin 30 nM, genistein 50 μM, PD98059 5 μM; for effect on E2-stimulated eNOS activity, later phase (≥15 min) or 30 min: ICI 10 μM, actinomycin D 2 h pretreatment
Procedure: Fetal bovine serum was deprived of estrogen by charcoal-stripping. Once grown to confluence the cells were replated on 1.5% gelatin-coated flasks at 20000 cells/cm^2. […] Cell number was assessed by direct cell counting of adherent cells, after trypsin detachment, in a Neubauer hemocytometer (VWR Scientifics). The percentage of cells excluding Trypan Blue after staining with the compound was taken as a measure of cell viability.
Endothelial cells were grown to confluence on 55 cm^2 culture dishes, treated according to the indicated conditions, and harvested in ice-cold PBS containing 1 mM EDTA. The cell lysates were pelleted in a microfuge (2 minutes, 13000 rpm, 4° C.) and subsequently homogenized in a buffer containing 25 mM Tris-HCl, pH 7.4, 1 mM EDTA, 1 mM EGTA. eNOS activity was determined by measuring the conversion of [^3H]-arginine to [^3H]-citrulline. Rat cerebellum extracts, containing elevated amounts of neuronal NOS, were used as positive controls, while endothelial cell extracts incubated in the presence of the competitive eNOS inhibitor L-NAME (1 mM) served as negative controls.
Human and bovine aortic endothelial cells were harvested enzymatically with Type IA collagenase (1 mg/mL).

Akt/PKB [1] = assay: Immunoblotting of Akt phosphorylation (Thr 308, Ser 473); format: cell-based, human; conditions: E2/αE2 10 nM, insulin 100 nM, 20 min
Procedure: After the different treatments, serum-starved endothelial cells were rinsed once with ice-cold PBS before addition of the lysis buffer (100 mM Tris-HCl, pH 6.8, 4% SDS, 20% glycerol, 1 mM sodium orthovanadate, 1 mM NaF, and 1 mM phenylmethylsulfonylfluoride) to the dishes on an ice tray. The cell lysates were scraped, boiled, and centrifuged for 2 min at 13000 rpm. Total cell lysates (40 μg of protein) and low range molecular weight markers (BIO-RAD, Hercules, Calif.) were separated by SDS-polyacrylamide gel electrophoresis (12% running, 4% stacking), electrophoretically transferred to polyvinylidene fluoride membranes (Immobilon P, 0.45 μm pore size) and incubated overnight at 4° C. with blocking solution (5% skim milk in TBS—0.1% Tween 20). Affinity-purified rabbit antibodies (0.4 μg of IgG/ml) vs. Akt, (Ser 473) phospho-Akt or (Thr 308) phospho-Akt (New England BioLabs, Beverly, Mass.), Erk1/2, (Tyr 204) phospho-Erk-1/-2 (Calbiochem, San Diego, Calif.) were incubated with the membranes overnight at 4° C. in TBS—0.1% Tween 20 containing 5% BSA. The blots were washed three times with TBS—0.1% Tween 20 and then treated with donkey anti-rabbit antibody (1:4000 dilution) coupled to horseradish peroxidase. Immunodetection was accomplished using the enhanced chemoluminescence kit (ECL Kit, Amersham Corp.).

PI3-kinase = PI3-kinase assay on p85 immunoprecipitates of endothelial cell lysates; format: cell-based, human; conditions: for stimulation of PI3-kinase activity: 20 min, E2/αE2 10 nM, insulin 100 nM
Procedure: PI3kinase activity in endothelial cell lysates was assayed using the borate thin layer chromatography method, as described.^34 Following a 6 h incubation in serum- and estrogen-deficient medium 199, endothelial cells were treated according to the indicated conditions, washed, and harvested in ice-cold lysis buffer (137 mM NaCl, 20 mM Tris-HCl, pH 7.4, 1 mM CaCl2, 1 mM Mg Cl2, 0.1 mM Na3VO4, 1% NP-40). After pelleting the cell debris, the supernatant was incubated for 1 hour at 4° C. with 5 μL of a rabbit antiserum directed against the p85 regulatory subunit of the PI3-kinase (Upstate Biotechnology, Lake Placid, N.Y.), and immunoprecipitated with the addition of 50 μL of a 1:1 slurry of protein A-agarose for 1 hour at 4° C. Following centrifugation, the immunoprecipitates were washed three times with lysis buffer, three times with 0.1 M Tris-HCl, pH 7.4, 5 mM LiCl, 0.1 mM Na3VO4, followed by two washes with 10 mM Tris-HCl, pH 7.4, 150 mM NaCl, 5 mM EDTA, 0.1 mM Na3VO4.
The immunoprecipitates were then mixed with 50 μL Tris-HCl, pH 7.4, 150 mM NaCl, 5 mM EDTA, 20 μg of phosphatidylinositol (Sigma, Saint Louis, Mo.), 10 μL 100 mM MgCl2 and 5 μL of a 0.88 mM ATP, 20 mM MgCl2 solution, containing 30 μCi of [γ-^32P]ATP (3000 Ci/mmol; NEN Life Science Products, Boston, Mass.). […] The phospholipids were extracted with 160 μL of chloroform/methanol (1:1, v/v). 50 μL of the organic phase, containing the labeled PI3-kinase products were separated by borate thin layer chromatography on glass-backed Silica Gel 60 plates (EM Separations, Gibbstown, N.J.) pretreated with a solution containing 25 mM trans-1,2-diaminocyclohexane-N,N,N′N′-tetraacetic acid (CDTA, Sigma, Saint Louis, Mo.), 66% (v/v) ethanol and 0.06 N NaOH, dried for 1 hour and then baked at 100° C. for 15 minutes. The chromatography was developed with a solution containing 37.5% (v/v) methanol, 30% (v/v) chloroform, 22.5% (v/v) pyridine (Sigma, Saint Louis, Mo.), 1.33% (v/v) formic acid, […] boric acid and 8.5 mM butylated hydroxytoluene (Sigma, Saint Louis, Mo.), briefly dried and exposed to autoradiography.

Akt/PKB [2] = assay: Akt kinase assay (immunoprecipitated Akt, GSK-3 peptide); format: cell-based, human; conditions: E2/αE2 10 nM, insulin 100 nM, 20 min
Procedure: Immunoprecipitated Akt kinase activity was assayed on endothelial cell lysates by using the Aktl/PKBα immunoprecipitation kinase assay kit (Upstate Biotechnology, Lake Placid, N.Y.). Endothelial cells were starved in phenol red-free199 medium with 0.4% estrogen-deprived FBS, treated, washed, and then harvested in ice-cold Buffer A (50 mM Tris-HCl, pH 7.5, 1 mM EDTA, 1 mM EGTA, […] Na3VO4, 0.1% (v/v) 2-mercaptoethanol, 1% Triton X-100, 50 mM sodium fluoride, 5 mM sodium pyrophosphate, 10 mM sodium glycerophosphate, 0.1 mM PMSF, 1 μg/mL of aprotinin, pepstatin, leupeptin and 1 μM microcystin). The cleared cell lysates were incubated for 1 hour at 4° C. with 4 μg/tube of anit-Akt1/PKBα PH domain immunoaffinity purified sheep IgG, after which 50 μL of a 1:1 (v/v) protein G-agarose slurry was added for an additional hour of incubation at 4° C. After centrifugation, the immunoprecipitates were washed three times with Buffer A containing 0.5 M NaCl, then two times with Buffer B (50 mM Tris-HCl, pH 7.5, 0.03% (w/v) Brij-35, 0.1 mM EGTA, 0.1% (v/v) 2-mercaptoethanol), and finally twice with 1×Assay Buffer (20 mM MOPS, pH 7.2, 25 mM β-glycerol phosphate, 5 mM EGTA, 1 mM Na3VO4, 1 mM DTT).
The immunoprecipitates were resuspended in 10 μL of ice-cold 1×Assay Buffer, and were sequentially added: 10 μL of 40 μM PKA inhibitor peptide ([…]-NH2—corresponding to residues 7-23 of human PKA inhibitor), 10 μL of Akt/PKB specific substrate peptide (100 μM) (RPRAATF—corresponding to the phosphorylation site of glycogen synthase kinase-3, specifically targeted by Akt/PKB, but not by other protein kinases such as Rsk-2 and p70 S6 kinase), and 10 μL of [γ-^32P]ATP stock solution (1×Assay Buffer with 500 μM ATP, 75 mM MgCl2, containing 1 μCi/μL [γ^32-P]ATP, 3000 Ci/mmol). The reaction was incubated at 37° C. for 30 minutes, after which 40 μL of the supernatant was mixed with 20 μL of 40% TCA and incubated for 5 minutes at room temperature. 40 μL of each final fraction were spotted onto the center of a 2 cm×2 cm P81 phosphocellulose paper. The assay squares were washed three times with 0.75% phosphoric acid for five minutes at room temperature, then once with acetone. The squares were then transferred to vials containing a liquid scintillation cocktail and read in a scintillation counter. Blank reaction for the detection of the unspecific background were performed by substituting the cell lysate with Buffer A at the beginning of the procedure, and aspecific endogenous phosphorylation of proteins in the sample extract was estimated by substituting in some samples 1×Assay Buffer for the Akt/PKB specific substrate peptide.

NO release = assay: Nitrite assay (NO accumulation from endothelial cells); format: cell-based, human; conditions: 30 min; E2/αE2 10 nM, insulin 100 nM, acetylcholine
Procedure: NO accumulation from serum-starved endothelial cells was determined by a modified nitrite assay using 2, 3 diaminonaphtalene as described previously.^33 Fluorescence of 1-(H)-naphtotriazole was measured with excitation and emission wavelengths of 365 and 450 nm, respectively. Standard curves were constructed with known amounts of sodium nitrite. Nonspecific fluorescence was determined in the presence of LNMA (3 mM).

ER-α / PI3-kinase p85α = molecular target: T1, ER-α / PI3-kinase p85α (Homo sapiens, UniProt P03372); assay: ER-α immunoprecipitation: co-precipitated p85α and associated PI3-kinase activity; format: cell-based; conditions: ICI 10 μM, wortmannin, tamoxifen 1 μM, PD 98059 5 μM, actinomycin D 5 μM
T1 construct: endogenous in cells; host or cells: human endothelial cells (HSVEC), anti-ERα immunoprecipitate
T1 sequence (P03372 1-595): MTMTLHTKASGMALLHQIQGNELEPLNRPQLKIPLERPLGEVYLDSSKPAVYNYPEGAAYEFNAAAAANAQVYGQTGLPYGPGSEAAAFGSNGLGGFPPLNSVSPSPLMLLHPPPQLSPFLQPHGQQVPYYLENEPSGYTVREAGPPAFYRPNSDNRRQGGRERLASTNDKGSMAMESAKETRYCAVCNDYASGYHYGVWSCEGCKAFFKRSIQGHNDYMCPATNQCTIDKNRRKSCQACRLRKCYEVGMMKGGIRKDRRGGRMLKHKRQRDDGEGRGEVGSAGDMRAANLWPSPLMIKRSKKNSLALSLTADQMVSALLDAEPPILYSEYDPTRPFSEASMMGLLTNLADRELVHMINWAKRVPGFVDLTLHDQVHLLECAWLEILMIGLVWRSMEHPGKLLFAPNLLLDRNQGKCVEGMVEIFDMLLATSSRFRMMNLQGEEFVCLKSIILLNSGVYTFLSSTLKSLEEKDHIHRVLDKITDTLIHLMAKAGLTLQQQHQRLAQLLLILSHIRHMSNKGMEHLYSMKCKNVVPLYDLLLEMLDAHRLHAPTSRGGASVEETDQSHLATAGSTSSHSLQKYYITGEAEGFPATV

| SMILES | stimulation of eNOS activity by the substance alone (eNOS; E2/αE2 10 nM, insulin 100 nM, 30 min) | Akt Ser 473 phosphorylation (Akt/PKB [1]) | Akt threonine (Thr 308) phosphorylation (Akt/PKB [1]) | stimulation of PI3-kinase activity (PI3-kinase) | stimulation of PI3-kinase activity (PI3-kinase; listed as αE2) | stimulation of Akt kinase activity (words) (Akt/PKB [2]) | stimulation of Akt kinase activity (words) (Akt/PKB [2]; listed as 17a-estradiol) | stimulation of NO release / production (nitrite accumulation) (NO release) | effect on E2-stimulated eNOS activity, later phase (≥15 min) or 30 min (eNOS) | effect on insulin-induced eNOS activity (eNOS; insulin 100 nM, 30 min) | effect on basal eNOS activity, substance alone (eNOS; no E2) | effect on E2-stimulated ER-α-associated PI3-kinase activity (ER-α / PI3-kinase p85α) | effect on E2-stimulated eNOS activity, later phase (≥15 min) or 30 min (eNOS; listed as Genistein) | effect on E2-stimulated eNOS activity, initial phase (first 5-10 min) (eNOS) | effect on E2-stimulated eNOS activity, initial phase (first 5-10 min) (eNOS; listed as Genistein) | effect on E2-induced PI3-kinase activation (PI3-kinase; E2 10 nM 20 min, ICI 10 μM, wortmannin 30 nM) |
| --- | --- | --- | --- | --- | --- | --- | --- | --- | --- | --- | --- | --- | --- | --- | --- | --- |
| C[C@]12CC[C@@H]3c4ccc(O)cc4CC[C@H]3[C@@H]1CC[C@H]2O [17α-estradiol] | no effect; also recorded: inability | ineffective | ineffective; also recorded: minimal increase | ineffective; also recorded: inability | lack | ineffective | small increase | very low effect; also recorded: inability |  |  |  |  |  |  |  |  |
| Cc1c2oc3c(C)ccc(C(=O)N[C@@H]4C(=O)N[C@H](C(C)C)C(=O)N5CCC[C@H]5C(=O)N(C)CC(=O)N(C)[C@@H](C(C)C)C(=O)O[C@@H]4C)c3nc-2c(C(=O)N[C@@H]2C(=O)N[C@H](C(C)C)C(=O)N3CCC[C@H]3C(=O)N(C)CC(=O)N(C)[C@@H](C(C)C)C(=O)O[C@@H]2C)c(N)c1=O [actinomycin D] (I: T[dV]P[Sar][NMeV] / II: T[dV]P[Sar][NMeV]; ester I:1-I:C, II:1-II:C; linker I:N-II:N via Actinocin(9to1)) |  |  |  |  |  |  |  |  | did not affect; also recorded: no effect | did not affect; also recorded: no inhibitory effect | nor had any effects by itself; also recorded: no effect | not |  |  |  |  |
| O=c1c(-c2ccc(O)cc2)coc2cc(O)cc(O)c12 [genistein] |  |  |  |  |  |  |  |  | only minimally affected; also recorded: not the later phase; also recorded: little or no inhibitory effect |  |  |  | do not block | able to block; also recorded: significantly blocked | blunt | only minimally affected |
